Literature values, collected in US20260345512A1, “TRANSDERMAL DELIVERY OF DEXTROMETHORPHAN” (SHINKEI THERAPEUTICS, INC., priority 2022, published 2026).

How the values were obtained:
[1] = without enhancer
[2] = dextromethorphan alone

| Compound | transdermal delivery rate relative to beta estradiol [1] | adverse reactions reported with use of the individual component [2] |
| --- | --- | --- |
| C[C@]12CC[C@H]3[C@@H](CCC4=CC(=O)CC[C@@]43C)[C@@H]1CC[C@@H]2O [testosterone] | three orders of magnitude higher | – |
| COc1ccc2c(c1)[C@]13CCCC[C@@H]1[C@H](C2)N(C)CC3 [dextromethorphan] | – | drowsiness, dizziness, nervousness or restlessness, nausea, vomiting, and stomach pain |
